From ChEMBL document CHEMBL5725591, “Tricyclic PI3K inhibitor compounds and methods of use” (2018)

Target: Phosphatidylinositol 4,5-bisphosphate 3-kinase catalytic subunit alpha isoform (Homo sapiens, UniProt P42336)
Experiment: p110alpha (alpha) PI3K Binding Assay: PI3K Binding assays are intended for determining the biochemical potency of small molecule PI3K inhibitors. The PI3K lipid kinase reaction is performed in the presence of PIP2:3PS lipid substrate (Promega #V1792) and ATP. Following the termination if the kinase reaction, turnover of ATP to ADP by the phosphorylation of the lipid substrate is detected using the Promega ADP-Glo¿ (Promega #V1792) assay.

Phosphatidylinositol 4,5-bisphosphate 3-kinase catalytic subunit alpha isoform, sequence (P42336 whole entry, canonical isoform): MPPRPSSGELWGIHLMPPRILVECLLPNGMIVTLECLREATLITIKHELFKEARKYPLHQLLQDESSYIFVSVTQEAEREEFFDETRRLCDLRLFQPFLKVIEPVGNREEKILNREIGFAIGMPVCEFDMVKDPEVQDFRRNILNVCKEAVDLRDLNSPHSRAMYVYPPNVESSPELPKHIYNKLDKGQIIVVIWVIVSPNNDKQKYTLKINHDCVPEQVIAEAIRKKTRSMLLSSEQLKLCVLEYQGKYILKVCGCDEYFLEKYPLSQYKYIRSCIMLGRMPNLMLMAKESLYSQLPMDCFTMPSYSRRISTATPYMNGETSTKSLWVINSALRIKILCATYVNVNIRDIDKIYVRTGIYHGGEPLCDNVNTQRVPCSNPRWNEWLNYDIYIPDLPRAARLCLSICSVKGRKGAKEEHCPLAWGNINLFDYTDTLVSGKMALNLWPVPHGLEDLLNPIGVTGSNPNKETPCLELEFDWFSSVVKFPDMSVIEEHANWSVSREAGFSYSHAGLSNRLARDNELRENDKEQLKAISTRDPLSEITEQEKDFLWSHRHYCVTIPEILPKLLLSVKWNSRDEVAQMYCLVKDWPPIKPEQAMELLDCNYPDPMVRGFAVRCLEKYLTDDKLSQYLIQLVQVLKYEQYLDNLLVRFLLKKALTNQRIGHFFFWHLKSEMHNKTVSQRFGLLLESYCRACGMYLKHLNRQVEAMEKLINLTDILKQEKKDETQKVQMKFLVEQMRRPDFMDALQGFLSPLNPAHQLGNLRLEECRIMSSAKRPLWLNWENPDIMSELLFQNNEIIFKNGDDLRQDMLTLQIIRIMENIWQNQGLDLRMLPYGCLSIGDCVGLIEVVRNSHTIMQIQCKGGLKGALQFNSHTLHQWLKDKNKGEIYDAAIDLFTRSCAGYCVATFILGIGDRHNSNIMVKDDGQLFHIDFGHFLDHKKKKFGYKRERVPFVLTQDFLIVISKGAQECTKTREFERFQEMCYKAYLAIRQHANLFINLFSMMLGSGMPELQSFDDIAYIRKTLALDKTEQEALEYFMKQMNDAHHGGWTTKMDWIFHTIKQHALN

`Cn1ncnc1-c1nc2cc(N[C@H](C(N)=O)C3CC3)cc3c2n1CCCO3` and `Cn1cc(-c2nc3cc(N[C@H](C(N)=O)C4CC4)cc4c3n2CCCO4)cn1` are within 1.5-fold of each other in Ki: 396 nM for the first, 359 nM for the second.

Compared with `CC[C@H](Oc1cc2c3c(c1)nc(-c1ccc4oc(N)nc4c1)n3CCCO2)C(N)=O` (single isomer, unassigned), `CC[C@@H](Oc1cc2c3c(c1)nc(-c1ccc4oc(N)nc4c1)n3CCCO2)C(N)=O` (single isomer, unassigned) is 3-fold higher in Ki: 0.27 nM for the first, 0.8 nM for the second. The first binds more tightly here.

`NC(=O)[C@@H](Nc1cc2c3c(c1)nc(-c1ccc4c(n1)OCCO4)n3CCCO2)C1CC1` gave a Ki of 24.1 nM.
